From US20120196335A1, “LIGF-TYPE TRANSFORMANTS FOR BIOCONVERSION OF LIGNIN-DERIVED COMPOUNDS” (priority 2010, published 2012)

Tested on: not listed separately
Experiment: in vitro biochemical assay for beta-etherase activity on fluorescent substrate MUAV (clarified E. coli cell extracts)
Conditions: 0.1 mM MUAV substrate; E. coli cell extracts expressing the protein
Source text: The model substrate synthesis 150 for use in the biochemical screening for selective activity can be outsourced through a contract research organization (CRO). The enzyme discovery effort can initially be focused on identifying potential beta-etherase candidate genes identified through bioinformatic methods. […] The fluorescent substrate α-O-(β-methylumbelliferyl)acetovanillone (MUAV), for example, can be used in in vitro assays to identify beta-etherase function (Acme Biosciences, Mt. View, Calif.). The formation of 4 methylumbelliferone (4MU) upon hydrolysis of the aryl ether bond can be monitored by fluorescence, for example, at λex=365 nm and λem=450 nm (or 460 nm).
The enzyme screening 155 is done to identify novel etherases 160. […] Expression of the beta-etherase genes can be done in 5 ml or 25 ml samples of the recombinant E. coli strains in LB medium using induction with IPTG. Following induction, and cell harvest, cell pellets can be lysed using the BPER (Invitrogen) cell lysis system. […] The formation of 4 methylumbelliferone (4MU) upon hydrolysis of the aryl ether bond in MUAV can be monitored by fluorescence at λex=365 nm and λem=460 nm, and can provide quantitative measurement of beta-etherase function. Cell extracts of E. coli transformed with the S. paucimobilis ligE and ligF genes can be the assay positive controls. Test or unknown samples can include, for example, E. coli strains expressing putative beta-etherase genes from N. aromaticovorans.
This example describes a method for gene expression in E. coli, as well as beta-etherase biochemical assays. Expression of known and putative beta-etherase genes was performed using 5 ml cultures of the recombinant E. coli strains described herein in Luria Broth medium by induction of gene expression using isopropylthiogalactoside (IPTG) to a final concentration of 0.1 mM. Following induction, and cell harvest, the cells were disrupted using either sonication or the BPER (Invitrogen) cell lysis system.
In vitro reactions were performed in a total volume of 200 ul and contained: 25 mM TrisHCl pH 7.5; 0.5 mM dithiothreitol; 1 mM glutathione; 0.05 mM or 0.1 mM MUAV; 10 ul of clarified cell extract used to initiate the reactions. Following incubation for 2.5 hours at room temperature, a 50 ul sample of the reactions was terminated using 150 uL of 300 mM glycine/NaOH buffer pH 9. The formation of 4 methylumbelliferone (4MU) upon hydrolysis of the aryl ether bond was monitored by the increase in fluorescence at λex=360 nm and λem=450 nm using a Spectramax UV/visible/fluorescent spectrophotometer.
The total protein concentrations of the cell lysates were determined using the BCA reagent system for protein quantification (Pierce).
Induction might be also performed using IPTG concentrations in the range of 0.01-1 mM. Cell disruption might be also performed using toluene permeabilization, French pressure techniques, or using multiple freeze/thaw cycles in conjunction with lysozyme. Assay conditions might be varied to include TrisHCl at 10-150 mM concentrations and in the pH range of 6.5-8.5; 0-2 mM dithiothreitol; 0.05-2 mM glutathione; 0.01-5 mM MUAV substrate; 22-42° C. reaction temperatures. The biochemical assay might be performed as a fixed time point assay with reaction times ranging from 5 minutes-12 hours, or performed continuously without quenching with glycine/NaOH buffer to extract enzyme kinetic parameters.

| Molecule | total activity (beta-etherase) [rfu/ug] |
| --- | --- |
| ligE1: N. aromaticivorans beta-etherase polypeptide, glutathione S-transferase-like protein, GenBank ABD26841.1, SEQ ID NO:101 (protein) MAANNTITFYDLALSTGATISPFVWATKYALKHKGFDLDVVPGGFTGILERTGGKTERLPAIVDDGEFVLDSWGIVEYLDAKYPDRPVLIPHESVAATLKALDNWFWNAAVGPWMFCFCQDYRDLSLPQDHEYVTHSREKMLGRKLEEVQAGREERLPKISAALEPLRAALAQHQWLGGSSPNYADYRIMGGILFTASVCKTPVLANDDPLRDWIERCLDLYGGLGRHPGLFPLFGLEQREGDPDLFNRAAGQGGIYKRNTGPESTRAETQRITEGMKK | 529 |
| ligE: S. paucimobilis beta-etherase, positive control, GenBank BAA02032.1, SEQ ID NO:1 (protein) MARNNTITLYDLQLESGCTISPYVWRTKYALKHKGFDIDIVPGGFTGILERTGGRSERVPVIVDDGEWVLDSWVIAEYLDEKYPDRPMLFEGPTQKNLMKFLDNWLWSTAVGPWFRCYILDYHDLSLPQDRDYVRWSREQWFLGGQRLEDVQAGREDRLPLVPPTLEPFRRILAETKWLGGDQPNFADYSALAVFLWTASVARTPPLTEDDPLRDWLDRGFDLFDGLGRHPGMNPLFGLKLREGDPEPFVRQTGPAGAGGQALNKGPQTTKMPPRVAEKAD | 7 |
| LigF2: N. aromaticivorans beta-etherase polypeptide, glutathione S-transferase-like protein, GenBank ABD27301.1, SEQ ID NO:541 (protein) MALKYYHAEPLANSLKSMVPLKEKGLAYESIYVDLHKFEQHQPWFTAINPEGQVPVLDHDGTIITHTTVINEYLEDAFPDAQPADAPLRPRDPVGAARMRYWNKFIDEHVMNYVSMHGWHRMVGVIARNIASGDFEKLLESIPLPDQRKKWATARSGFSEADLANATAKIEYALDKVEKQLGETKWLAGDTYTLADINFYSHCGAMVERMFPEMEVARRAPRLCEWRDRVAARPAVAEALKSEDRTAPGLRVWSGEVR | 1206 |

Same assay, conditions: MUAV substrate

| Molecule | beta-etherase activity on the MUAV substrate (in words) | fold more efficient than S. paucimobilis ligE beta-etherase enzyme | fold more efficient than S. paucimobilis LigF protein |
| --- | --- | --- | --- |
| ligE1: N. aromaticivorans beta-etherase polypeptide, glutathione S-transferase-like protein, GenBank ABD26841.1, SEQ ID NO:101 (protein) MAANNTITFYDLALSTGATISPFVWATKYALKHKGFDLDVVPGGFTGILERTGGKTERLPAIVDDGEFVLDSWGIVEYLDAKYPDRPVLIPHESVAATLKALDNWFWNAAVGPWMFCFCQDYRDLSLPQDHEYVTHSREKMLGRKLEEVQAGREERLPKISAALEPLRAALAQHQWLGGSSPNYADYRIMGGILFTASVCKTPVLANDDPLRDWIERCLDLYGGLGRHPGLFPLFGLEQREGDPDLFNRAAGQGGIYKRNTGPESTRAETQRITEGMKK | beta-etherase activity | approximately 75 fold | – |
| LigF2: N. aromaticivorans beta-etherase polypeptide, glutathione S-transferase-like protein, GenBank ABD27301.1, SEQ ID NO:541 (protein) MALKYYHAEPLANSLKSMVPLKEKGLAYESIYVDLHKFEQHQPWFTAINPEGQVPVLDHDGTIITHTTVINEYLEDAFPDAQPADAPLRPRDPVGAARMRYWNKFIDEHVMNYVSMHGWHRMVGVIARNIASGDFEKLLESIPLPDQRKKWATARSGFSEADLANATAKIEYALDKVEKQLGETKWLAGDTYTLADINFYSHCGAMVERMFPEMEVARRAPRLCEWRDRVAARPAVAEALKSEDRTAPGLRVWSGEVR | beta-etherase activity | – | approximately 2 fold |
| ABD26530.1: N. aromaticivorans putative beta-etherase polypeptide LigF-1, SEQ ID NO:539 (protein) MVIPLGEDNTIMLKLYSFGPAANSMKPLLTVFEKGLDVEKHRLDPAKFEHHTDWFKAINPRGQVPALVDGDKVVTESTVICEYLEDEYPTEVALRPADSFGKAQMRIWTKWVDEYFCWCVSTIGWHRYVGNMVKSLSDAEFEEKVKAIPVIEQQVKWRRAREGFPQDMLDEEMRKIAYSVRKLDDHLADHEWLVPGQYTLADICNFAIANGMQFGFAELVNKQDTPHLVRWIEQINERPAVKQMFAQVELEKLGPRE | beta-etherase activity | – | – |
| ABD27309.1: N. aromaticivorans putative beta-etherase polypeptide LigF-3, SEQ ID NO:545 (protein) MDEVSLYHWEPNANSGKPMLALMEKGVPFSSHYIDMLQFDQHKPEYLAINPQGTIPAMTHNGQVLTESTAIMEYVNDRFDGPDLMPADAQDRWRVRWWMKFMDQWLGPSFSMIGWSVFVGPMVRQRDPAELAAAIDRIPLPERRTAWRKAINGDFSESEMAESRRRVGLGIAKLEEELGKRPYVGSNQYSLADINIFNSTYSLPISQPDLAGKDRTPNIMRWLKRVYTREAVKKTWAMGKTDLAHRYGLIMAEIEG | beta-etherase activity | – | – |

Tested on: Escherichia coli
Experiment: not given
Conditions: benzaldehyde derivatives, each alone; cited from earlier work

| Molecule | antibacterial activity against Escherichia coli |
| --- | --- |
| O=Cc1ccc(O)cc1O [2,4-dihydroxybenzaldehyde] | antibacterial activity |
| O=Cc1ccccc1O [2-hydroxybenzaldehyde] | antibacterial activity |
| COc1cccc(C=O)c1O [2-hydroxy-3-methoxybenzaldehyde] | antibacterial activity |
| O=Cc1cc(O)ccc1O [2,5-dihydroxybenzaldehyde] | antibacterial activity |
| O=Cc1cccc(O)c1O [2,3-dihydroxybenzaldehyde] | antibacterial activity |
| COc1cc(O)cc(OC)c1C=O [4-hydroxy-2,6-dimethoxybenzaldehyde] | antibacterial activity |
| COc1ccc(O)c(C=O)c1 [2-hydroxy-5-methoxybenzaldehyde] | antibacterial activity |
| O=Cc1ccc(O)c(O)c1O [2,3,4-trihydroxybenzaldehyde] | antibacterial activity |
| O=Cc1c(O)cc(O)cc1O [2,4,6-trihydroxybenzaldehyde] | antibacterial activity |

Same assay, conditions: each compound alone; known; cited from earlier work

| Molecule | antimicrobial activity against Escherichia coli |
| --- | --- |
| O=Cc1ccc(O)cc1 [4-hydroxybenzaldehyde] | antimicrobial activity |
| O=Cc1ccc(CO)o1 [5-hydroxymethylfurfural] | antimicrobial activity |
| COc1cc(C=O)cc(OC)c1O [syringaldehyde] | antimicrobial activity |
| COc1cc(C=O)ccc1O [vanillin] | antimicrobial activity |
| O=Cc1ccco1 [furfural] | antimicrobial activity |

Tested on: Saccharomyces cerevisiae
Experiment: not given
Conditions: each compound alone; cited from earlier work

| Molecule | antifungal activity against the yeast Saccharomyces cerevisiae |
| --- | --- |
| O=C(O)/C=C/c1ccccc1O [o-coumaric acid] | significant antifungal activities |
| O=C(O)C=Cc1ccccc1 [cinnamic acid] | significant antifungal activities |
| O=C(O)/C=C/c1cccc(O)c1 [m-coumaric acid] | significant antifungal activities |
| O=C(O)/C=C/c1ccc(O)cc1 [p-coumaric acid] | significant antifungal activities |
| COc1ccc(C=O)cc1OC [Veratraldehyde] | significant antifungal activities |
| COc1cc(C(=O)O)ccc1O [vanillic acid] | significant antifungal activities |
| COc1cc(CCC(C)=O)ccc1O [vanillylacetone] | significant antifungal activities |

Tested on: not given
Experiment: not given
Conditions: LigDFEG gene cluster, FIG. 2B; cited from earlier work

| Molecule | enzyme activity shown by gene product |
| --- | --- |
| LigD: S. paucimobilis C alpha-dehydrogenase, ligD gene product | Cα-dehydrogenase activity |
| ligE: S. paucimobilis beta-etherase, positive control, GenBank BAA02032.1, SEQ ID NO:1 (protein) MARNNTITLYDLQLESGCTISPYVWRTKYALKHKGFDIDIVPGGFTGILERTGGRSERVPVIVDDGEWVLDSWVIAEYLDEKYPDRPMLFEGPTQKNLMKFLDNWLWSTAVGPWFRCYILDYHDLSLPQDRDYVRWSREQWFLGGQRLEDVQAGREDRLPLVPPTLEPFRRILAETKWLGGDQPNFADYSALAVFLWTASVARTPPLTEDDPLRDWLDRGFDLFDGLGRHPGMNPLFGLKLREGDPEPFVRQTGPAGAGGQALNKGPQTTKMPPRVAEKAD | β-etherase activity |
| LigG: S. paucimobilis glutathione-eliminating glutathione S transferase, ligG gene product (protein) MSGASARSLGKGSAPPGPVPEGQIRVYSMRFCPFAQRTLMVLKAKGIRHEIININLKNKPEWFFEKNPFGLVPVLENTQGHLITESVITCEYLDEAYPEKKLFPDDPYEKACQKMTFELFSKVPSLVTSFIRAKRKEDHPGIKEELKKEFSKLEEAMANKRTAFFGGNSLSMIDYLIWPWFQRLEALELNECIDHTPKLKLWMATMQEDPVASSHFIDAKTYRDYLSLYLQDSPEACDYGL | glutathione lyase activity |
